From the kinase profiling compilation of Christmann-Franck et al. (2016)

How the values were obtained:
Test in all cases: KINOMEscan competition binding
Details in all cases: compound 10.0 µM
CPK1 (P.falciparum) = system: CPK1 (P.falciparum)
CRK2 (P.falciparum) = CRK2 (P.falciparum) (UniProt P61075)
MAP2K1 (human) = MAP2K1 (human) (UniProt Q02750)
CDK17 (human) = CDK17 (human) (UniProt Q00537)
CSK (human) = CSK (human) (UniProt P41240)
EPHB4 (human) = EPHB4 (human) (UniProt P54760)
FES (human) = FES (human) (UniProt P07332)
TEC (human) = TEC (human) (UniProt P42680)
EPHA4 (human) = EPHA4 (human) (UniProt P54764)
IKBKB (human) = IKBKB (human) (UniProt O14920)
SRPK2 (human) = SRPK2 (human) (UniProt P78362)
PDGFRB (human) = PDGFRB (human) (UniProt P09619)
CDK9 (human) = CDK9 (human) (UniProt P50750)
Sequence of CDK9 (human) (P50750 whole entry, looked up): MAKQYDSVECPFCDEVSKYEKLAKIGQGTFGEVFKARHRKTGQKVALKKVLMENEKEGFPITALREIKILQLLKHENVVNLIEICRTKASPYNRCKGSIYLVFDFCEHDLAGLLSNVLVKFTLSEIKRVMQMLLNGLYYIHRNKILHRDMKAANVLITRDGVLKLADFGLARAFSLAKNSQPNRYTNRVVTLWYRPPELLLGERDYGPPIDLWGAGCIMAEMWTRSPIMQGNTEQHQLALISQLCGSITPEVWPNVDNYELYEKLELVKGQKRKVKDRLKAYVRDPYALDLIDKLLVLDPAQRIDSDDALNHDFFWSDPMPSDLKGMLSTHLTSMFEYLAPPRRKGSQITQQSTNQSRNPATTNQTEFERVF

SGK3 (human) = SGK3 (human) (UniProt Q96BR1)
NTRK2 (human) = NTRK2 (human) (UniProt Q16620)
PRKACB (human) = PRKACB (human) (UniProt P22694)
IGF1R (human) = IGF1R (human) (UniProt P08069)
PRKCI (human) = PRKCI (human) (UniProt P41743)
EPHA1 (human) = EPHA1 (human) (UniProt P21709)
PLK4 (human) = PLK4 (human) (UniProt O00444)
Sequence of PLK4 (human) (O00444 whole entry, looked up): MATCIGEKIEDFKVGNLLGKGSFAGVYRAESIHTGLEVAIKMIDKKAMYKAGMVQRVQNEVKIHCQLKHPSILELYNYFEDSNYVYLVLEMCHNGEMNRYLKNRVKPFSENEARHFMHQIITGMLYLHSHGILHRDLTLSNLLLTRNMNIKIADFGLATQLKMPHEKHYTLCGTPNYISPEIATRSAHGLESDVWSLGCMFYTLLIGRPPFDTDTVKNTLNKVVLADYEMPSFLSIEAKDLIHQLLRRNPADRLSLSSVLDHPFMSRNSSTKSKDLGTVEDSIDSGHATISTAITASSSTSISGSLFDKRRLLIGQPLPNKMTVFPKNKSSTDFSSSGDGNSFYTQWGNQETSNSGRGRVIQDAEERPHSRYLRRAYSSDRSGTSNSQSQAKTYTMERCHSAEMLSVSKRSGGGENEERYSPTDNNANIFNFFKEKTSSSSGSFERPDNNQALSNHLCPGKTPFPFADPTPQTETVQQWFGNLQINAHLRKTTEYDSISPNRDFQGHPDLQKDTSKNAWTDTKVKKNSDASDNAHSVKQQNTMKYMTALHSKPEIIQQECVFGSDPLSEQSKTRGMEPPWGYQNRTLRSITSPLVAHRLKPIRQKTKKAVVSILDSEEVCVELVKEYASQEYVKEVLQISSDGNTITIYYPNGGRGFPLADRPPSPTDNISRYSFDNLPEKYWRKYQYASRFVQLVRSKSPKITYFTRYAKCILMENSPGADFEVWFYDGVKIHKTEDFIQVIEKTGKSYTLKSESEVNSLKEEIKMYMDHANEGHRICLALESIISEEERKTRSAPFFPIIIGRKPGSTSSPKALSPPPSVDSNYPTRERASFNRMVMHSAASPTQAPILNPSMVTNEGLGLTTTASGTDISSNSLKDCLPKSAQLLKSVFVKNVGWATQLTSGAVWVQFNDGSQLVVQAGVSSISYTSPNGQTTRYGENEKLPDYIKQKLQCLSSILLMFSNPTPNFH

ADCK4 (human) = ADCK4 (human) (UniProt Q96D53)
CDKL1 (human) = CDKL1 (human) (UniProt Q00532)
CDK13 (human) = CDK13 (human) (UniProt Q14004)
ITK (human) = ITK (human) (UniProt Q08881)
EPHA2 (human) = EPHA2 (human) (UniProt P29317)
Sequence of EPHA2 (human) (P29317 whole entry, looked up): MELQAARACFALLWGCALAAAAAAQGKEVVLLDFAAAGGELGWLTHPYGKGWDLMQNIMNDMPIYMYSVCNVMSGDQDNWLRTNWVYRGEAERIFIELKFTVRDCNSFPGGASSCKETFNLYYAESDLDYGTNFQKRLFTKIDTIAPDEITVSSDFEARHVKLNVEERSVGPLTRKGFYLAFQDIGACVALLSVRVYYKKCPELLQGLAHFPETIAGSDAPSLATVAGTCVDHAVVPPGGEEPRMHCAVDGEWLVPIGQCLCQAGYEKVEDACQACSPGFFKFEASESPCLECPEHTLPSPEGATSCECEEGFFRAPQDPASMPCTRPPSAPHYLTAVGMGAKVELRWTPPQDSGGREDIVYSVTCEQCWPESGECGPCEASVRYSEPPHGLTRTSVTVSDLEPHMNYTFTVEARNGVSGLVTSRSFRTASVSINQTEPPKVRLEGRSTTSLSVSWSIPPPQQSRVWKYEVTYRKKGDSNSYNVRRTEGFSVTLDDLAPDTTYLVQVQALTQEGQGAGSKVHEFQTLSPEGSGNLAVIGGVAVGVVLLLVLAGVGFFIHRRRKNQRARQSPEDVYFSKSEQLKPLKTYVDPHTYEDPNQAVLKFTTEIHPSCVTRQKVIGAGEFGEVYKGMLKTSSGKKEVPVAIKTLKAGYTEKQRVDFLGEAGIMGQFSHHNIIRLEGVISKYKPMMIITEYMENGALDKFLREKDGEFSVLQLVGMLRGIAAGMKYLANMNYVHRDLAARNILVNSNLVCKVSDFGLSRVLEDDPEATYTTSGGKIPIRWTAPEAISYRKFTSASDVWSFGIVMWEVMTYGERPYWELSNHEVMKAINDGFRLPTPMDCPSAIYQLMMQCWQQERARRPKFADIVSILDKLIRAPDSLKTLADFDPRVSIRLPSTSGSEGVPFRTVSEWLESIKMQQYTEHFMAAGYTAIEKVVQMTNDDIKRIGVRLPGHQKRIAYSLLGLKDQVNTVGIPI

CDC42BPG (human) = CDC42BPG (human) (UniProt Q6DT37)
PIM3 (human) = PIM3 (human) (UniProt Q86V86)
STK3 (human) = STK3 (human) (UniProt Q13188)
CDK18 (human) = CDK18 (human) (UniProt Q07002)
PIM2 (human) = PIM2 (human) (UniProt Q9P1W9)
Sequence of PIM2 (human) (Q9P1W9 whole entry, looked up): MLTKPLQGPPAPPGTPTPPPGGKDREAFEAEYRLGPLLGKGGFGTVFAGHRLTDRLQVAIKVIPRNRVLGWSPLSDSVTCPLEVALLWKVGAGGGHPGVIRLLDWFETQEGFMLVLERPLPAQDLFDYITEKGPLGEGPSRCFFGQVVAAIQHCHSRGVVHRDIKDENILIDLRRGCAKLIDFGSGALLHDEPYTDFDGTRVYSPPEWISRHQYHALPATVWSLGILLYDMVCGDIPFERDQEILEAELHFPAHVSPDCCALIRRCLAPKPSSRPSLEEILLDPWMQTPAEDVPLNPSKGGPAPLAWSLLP

STK33 (human) = STK33 (human) (UniProt Q9BYT3)
Sequence of STK33 (human) (Q9BYT3 whole entry, looked up): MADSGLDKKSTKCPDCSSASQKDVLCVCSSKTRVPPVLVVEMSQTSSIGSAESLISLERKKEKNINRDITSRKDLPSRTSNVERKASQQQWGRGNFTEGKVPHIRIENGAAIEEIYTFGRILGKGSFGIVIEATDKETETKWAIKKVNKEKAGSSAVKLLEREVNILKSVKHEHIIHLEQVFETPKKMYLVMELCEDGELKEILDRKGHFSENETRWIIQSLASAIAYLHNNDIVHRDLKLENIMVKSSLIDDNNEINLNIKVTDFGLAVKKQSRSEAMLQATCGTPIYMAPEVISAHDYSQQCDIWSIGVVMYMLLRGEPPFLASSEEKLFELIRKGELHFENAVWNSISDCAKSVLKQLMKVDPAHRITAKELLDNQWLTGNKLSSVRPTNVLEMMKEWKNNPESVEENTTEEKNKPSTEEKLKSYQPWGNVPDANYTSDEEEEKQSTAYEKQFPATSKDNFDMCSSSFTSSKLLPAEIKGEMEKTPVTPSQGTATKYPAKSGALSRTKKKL

ABL2 (human) = ABL2 (human) (UniProt P42684)
[1] = system: FGFR3 (human), P22607 [G697C]
LIMK1 (human) = LIMK1 (human) (UniProt P53667)
STK17B (human) = STK17B (human) (UniProt O94768)
BMPR2 (human) = BMPR2 (human) (UniProt Q13873)
CDK8 (human) = CDK8 (human) (UniProt P49336)
SGK110 (human) = SGK110 (human) (UniProt P0C264)
PAK1 (human) = PAK1 (human) (UniProt Q13153)
KDR (human) = KDR (human) (UniProt P35968)
FGFR3 (human) = FGFR3 (human) (UniProt P22607)

Sequence of CSK (human) (P41240 whole entry, looked up): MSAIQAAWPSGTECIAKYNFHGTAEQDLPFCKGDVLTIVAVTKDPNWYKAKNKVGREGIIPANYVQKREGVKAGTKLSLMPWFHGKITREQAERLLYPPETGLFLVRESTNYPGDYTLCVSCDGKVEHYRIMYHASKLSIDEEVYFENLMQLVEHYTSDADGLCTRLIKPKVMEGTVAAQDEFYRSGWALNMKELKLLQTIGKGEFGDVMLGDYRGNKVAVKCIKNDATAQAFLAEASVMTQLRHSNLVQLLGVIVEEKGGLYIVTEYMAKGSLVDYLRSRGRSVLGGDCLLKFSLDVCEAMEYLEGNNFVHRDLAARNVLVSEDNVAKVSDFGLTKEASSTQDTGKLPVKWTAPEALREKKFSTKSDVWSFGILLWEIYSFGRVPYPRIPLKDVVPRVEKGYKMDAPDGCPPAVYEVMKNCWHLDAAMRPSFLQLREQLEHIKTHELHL
Sequence of MAP2K1 (human) (Q02750 whole entry, looked up): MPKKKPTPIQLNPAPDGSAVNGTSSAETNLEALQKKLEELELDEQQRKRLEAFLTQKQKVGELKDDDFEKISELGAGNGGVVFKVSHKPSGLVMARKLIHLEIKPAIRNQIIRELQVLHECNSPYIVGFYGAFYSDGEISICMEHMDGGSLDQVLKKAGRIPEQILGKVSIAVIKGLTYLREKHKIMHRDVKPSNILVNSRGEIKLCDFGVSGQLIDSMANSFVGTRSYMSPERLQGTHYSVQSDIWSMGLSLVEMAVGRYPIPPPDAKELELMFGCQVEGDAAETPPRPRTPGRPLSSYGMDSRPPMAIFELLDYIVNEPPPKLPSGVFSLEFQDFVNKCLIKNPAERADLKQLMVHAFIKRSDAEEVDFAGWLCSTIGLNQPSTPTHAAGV
Sequence of CDK17 (human) (Q00537 whole entry, looked up): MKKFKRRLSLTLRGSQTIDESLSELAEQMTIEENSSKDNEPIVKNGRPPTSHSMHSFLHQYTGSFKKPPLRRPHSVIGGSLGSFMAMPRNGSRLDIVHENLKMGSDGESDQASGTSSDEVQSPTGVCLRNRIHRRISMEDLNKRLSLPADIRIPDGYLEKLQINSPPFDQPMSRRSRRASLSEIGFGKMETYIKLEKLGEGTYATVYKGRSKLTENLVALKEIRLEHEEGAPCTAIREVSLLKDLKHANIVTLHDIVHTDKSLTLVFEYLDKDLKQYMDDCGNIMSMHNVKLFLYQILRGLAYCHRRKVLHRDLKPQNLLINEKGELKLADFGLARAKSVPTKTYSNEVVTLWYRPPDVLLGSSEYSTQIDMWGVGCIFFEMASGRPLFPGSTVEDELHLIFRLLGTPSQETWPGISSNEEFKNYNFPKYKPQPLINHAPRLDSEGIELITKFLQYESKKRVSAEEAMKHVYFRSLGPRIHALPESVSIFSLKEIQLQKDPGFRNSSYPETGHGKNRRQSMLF

| Compound | kinase still bound, per cent of control (MAP2K1 (human)) | kinase still bound, per cent of control (CDK17 (human)) | kinase still bound, per cent of control (CSK (human)) | kinase still bound, per cent of control (EPHB4 (human)) | kinase still bound, per cent of control (FES (human)) | kinase still bound, per cent of control (TEC (human)) | kinase still bound, per cent of control (EPHA4 (human)) | kinase still bound, per cent of control (IKBKB (human)) | kinase still bound, per cent of control (SRPK2 (human)) | kinase still bound, per cent of control (PDGFRB (human)) | kinase still bound, per cent of control (CDK9 (human)) | kinase still bound, per cent of control (NTRK2 (human)) | kinase still bound, per cent of control (PRKACB (human)) | kinase still bound, per cent of control (IGF1R (human)) | kinase still bound, per cent of control (EPHA1 (human)) | kinase still bound, per cent of control (PLK4 (human)) | kinase still bound, per cent of control (ADCK4 (human)) | kinase still bound, per cent of control (ITK (human)) | kinase still bound, per cent of control (EPHA2 (human)) | kinase still bound, per cent of control (CDC42BPG (human)) | other results |
| --- | --- | --- | --- | --- | --- | --- | --- | --- | --- | --- | --- | --- | --- | --- | --- | --- | --- | --- | --- | --- | --- |
| CC(=O)c1c(C)c2cnc(Nc3ccc(N4CCNCC4)cn3)nc2n(C2CCCC2)c1=O | 20% | 2.7% | 90% | 100% | 80% | 98% | 94% | 80% | 68% | 29% | 27% | 12% | 100% | 81% | 100% | 3.2% | 53% | 71% | 95% | 94% | kinase still bound, per cent of control (CPK1 (P.falciparum)): 46%; kinase still bound, per cent of control (CRK2 (P.falciparum)): 19%; kinase still bound, per cent of control (SGK3 (human)): 53%; kinase still bound, per cent of control (PRKCI (human)): 57%; kinase still bound, per cent of control (CDKL1 (human)): 35%; kinase still bound, per cent of control (CDK13 (human)): 47%; kinase still bound, per cent of control (PIM3 (human)): 82%; kinase still bound, per cent of control (STK3 (human)): 59%; kinase still bound, per cent of control (CDK18 (human)): 20%; kinase still bound, per cent of control (PIM2 (human)): 52%; kinase still bound, per cent of control (STK33 (human)): 24%; kinase still bound, per cent of control (ABL2 (human)): 97% |
| COc1cc(C)c(Sc2cnc(NC(=O)c3ccc(CNC(C)C(C)C)cc3)s2)cc1C(=O)N1CCN(C(C)=O)CC1 (configuration not stated) | 100% | 100% | 100% | 100% | 100% | 25% | 100% | 100% | 100% | 100% | 100% | 23% | 100% | 4.1% | 100% | 100% | 100% | 0.25% | 25% | 100% | kinase still bound, per cent of control [1]: 100%; kinase still bound, per cent of control (LIMK1 (human)): 100%; kinase still bound, per cent of control (STK17B (human)): 100%; kinase still bound, per cent of control (BMPR2 (human)): 100%; kinase still bound, per cent of control (CDK8 (human)): 100%; kinase still bound, per cent of control (SGK110 (human)): 100%; kinase still bound, per cent of control (PAK1 (human)): 100%; kinase still bound, per cent of control (PIM3 (human)): 100%; kinase still bound, per cent of control (STK3 (human)): 100%; kinase still bound, per cent of control (KDR (human)): 100%; kinase still bound, per cent of control (CDK18 (human)): 100%; kinase still bound, per cent of control (PIM2 (human)): 100%; kinase still bound, per cent of control (FGFR3 (human)): 100%; kinase still bound, per cent of control (STK33 (human)): 7%; kinase still bound, per cent of control (ABL2 (human)): 100% |
